The values below come from ChEMBL document CHEMBL1201862, “PubChem BioAssay data set” (2004).

Each structure is given as a SMILES string. Activity calls are given as the source filed them. A value given as a limit tells only on which side of the number the result lay.

The target of one test is Hexokinase (Trypanosoma brucei, UniProt Q38C41). As to the kind of experiment: Confirmation assay for inhibitors of Trypanosoma brucei hexokinase 1-Analogue-first series. [Related pubchem assays (depositor defined):AID1430, AID1632, AID2516, AID2560, AID2579, AID2600, AID449725, AID492951]. It is filed as functional.
In another test the target is Mu-type opioid receptor (Homo sapiens, UniProt P35372). As to the kind of experiment: SAR Analysis of Antagonists of the MOR Receptor using an Image-Based Assay - Set 3. [Related pubchem assays (depositor defined):AID1777, AID1785, AID1786, AID1966, AID2133, AID2136, AID2284, AID2285, AID2420]. It counts as functional.
Test [1] deals with T1, Kappa-type opioid receptor (Homo sapiens, UniProt P41145). As to the kind of experiment: SAR analysis of small molecule antagonists of the kappa opioid receptor via a luminescent beta-arrestin assay - Set 6. [Related pubchem assays (depositor defined):AID1777, AID1778, AID1785, AID1786, AID1966, AID2133, AID2136, AID2285]. It counts as functional.
Test [2] addresses T1, Kappa-type opioid receptor. As to the kind of experiment: SAR analysis of small molecule antagonists of the kappa opioid receptor via a luminescent beta-arrestin assay - Set 4. [Related pubchem assays (depositor defined):AID1777, AID1778, AID1785, AID1786, AID1966, AID2133, AID2136, AID2285]. It is filed as functional.
Test [3] has as its target Delta-type opioid receptor (Homo sapiens, UniProt P41143). As to the kind of experiment: SAR Analysis of Antagonists of the DOR Receptor using an Image-Based Assay - Set 3. [Related pubchem assays (depositor defined):AID1777, AID1785]. It counts as functional.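 Further: U2OS cells expressing DOR1 and beta-arrestin GFP stimulated with 100 nM SNC80; imaging of GFP-tagged beta-arrestin moving into spots after receptor activation.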
Test [4] concerns the target T1, Kappa-type opioid receptor. Nature of the test: SAR analysis of Antagonists of the Kappa Opioid Receptor (KOR) using an Image-Based Assay - Set 4. [Related pubchem assays (depositor defined):AID1777, AID1785]. It is filed as functional.
Another test relates to HeLa. As to the kind of experiment: viability loss in HeLa cells – cell-based, 24 h, cherry-picked samples, cytotoxicity control, dose response (AID 504726).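 Further: potency for cytotoxicity as loss of luminescence signal.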 It is filed as functional. The following applies: Homo sapiens.
A further test addresses ORF 73 (Human herpesvirus 8, UniProt O40947). As to the kind of experiment: KSHV LANA DNA-binding disruption – biochemical, fluorescence polarization, cherry-picked samples, dose response (AID 504725).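 Further: fluorescence polarization of a labeled DNA duplex reporting LANA DNA binding; potency is for inhibitors that block LANA binding to the DNA.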 Details: species or system Human gammaherpesvirus 8.
The next test addresses Keap1/Nrf2 (Homo sapiens, UniProt Q14145). As to the kind of experiment: disruptors of Keap1 binding to Nrf2 peptide – biochemical, fluorescence polarization, cherry-picked samples, dose response (AID 588683).
In test [5] the target is Cystic fibrosis transmembrane conductance regulator/Golgi-associated PDZ and coiled-coil motif-containing protein (Homo sapiens, UniProt P13569+Q9HD26). As to the kind of experiment: potency against CAL PDZ-peptide interaction – biochemical, fluorescence polarization, Cerulean-tagged CAL PDZ, cherry-picks, dose response (AID 504773). (In general: Polarisation of emitted light reports the rotation of a fluorescent probe.)

A short description of test [6]: Trypanosoma cruzi growth suppression in host cells – NIH3T3 host cells, beta-gal luminescence, confirmation (AID 2044).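 Further: intracellular parasites grown in NIH/3T3 mouse fibroblasts as host cells; luminescent beta-galactosidase reporter signal from transgenic T. cruzi replicating inside host cells; inhibitors lower the luminescence signal.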 It is filed as functional, cell-based.
The nature of test [7]: NIH3T3 cell viability loss – ATP luminescence, mouse fibroblasts, counter-screen, dose response (AID 2010).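 Further: cells exposed to compound for about 90 hours before reading.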 It counts as functional, cell-based.
Test [8] is described as follows: THP-1 cell cytotoxicity, dose response, cytotoxicity control for non-replicating M. tuberculosis project (AID 489025). It counts as functional.
Test [9] in a line: HepG2 cell cytotoxicity, dose response, cytotoxicity control for non-replicating M. tuberculosis project (AID 489018). The following applies: Mycobacterium tuberculosis. It counts as functional.
Test [10] can be described thus: Vero E6 cell cytotoxicity, dose response, cytotoxicity control for non-replicating M. tuberculosis project, secondary assay (AID 492998). It counts as functional, VeroE6. The following applies: Vero C1008.
A short description of another test: cells. It is filed as functional.
The target in test [11] is DNA dC->dU-editing enzyme APOBEC-3A (Homo sapiens, UniProt P31941). As to the kind of experiment: A3A deaminase inhibition for selectivity – biochemical, dose response (AID 504722). It counts as functional.
Test [12] deals with DNA dC->dU-editing enzyme APOBEC-3G (Homo sapiens, UniProt Q9HC16). As to the kind of experiment: Dose Response confirmation of small molecule APOBEC3G DNA Deaminase Inhibitors via a fluorescence-based single-stranded DNA deaminase assay. [Related pubchem assays (depositor defined):AID493012, AID493028]. It counts as functional.
Sequence of DNA dC->dU-editing enzyme APOBEC-3G (Q9HC16 whole entry): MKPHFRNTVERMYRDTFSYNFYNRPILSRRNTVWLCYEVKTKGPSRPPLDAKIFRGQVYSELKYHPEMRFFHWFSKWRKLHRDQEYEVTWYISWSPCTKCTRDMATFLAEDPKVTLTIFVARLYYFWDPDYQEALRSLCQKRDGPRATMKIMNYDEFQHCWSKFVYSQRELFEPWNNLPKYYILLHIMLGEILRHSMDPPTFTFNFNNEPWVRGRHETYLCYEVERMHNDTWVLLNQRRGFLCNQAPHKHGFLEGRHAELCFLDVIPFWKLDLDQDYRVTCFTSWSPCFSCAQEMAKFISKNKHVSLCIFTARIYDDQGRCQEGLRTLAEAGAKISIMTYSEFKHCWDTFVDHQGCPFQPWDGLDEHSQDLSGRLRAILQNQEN

T1 sequence (P41145 whole entry): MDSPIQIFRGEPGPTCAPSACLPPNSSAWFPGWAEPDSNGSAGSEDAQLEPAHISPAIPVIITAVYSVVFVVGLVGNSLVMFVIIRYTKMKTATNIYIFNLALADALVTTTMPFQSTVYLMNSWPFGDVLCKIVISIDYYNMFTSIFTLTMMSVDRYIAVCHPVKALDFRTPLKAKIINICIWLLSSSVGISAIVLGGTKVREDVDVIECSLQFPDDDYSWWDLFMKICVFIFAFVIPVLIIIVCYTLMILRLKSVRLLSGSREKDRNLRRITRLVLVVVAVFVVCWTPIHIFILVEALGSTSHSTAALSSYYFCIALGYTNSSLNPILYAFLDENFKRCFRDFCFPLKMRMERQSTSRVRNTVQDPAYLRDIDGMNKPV
Sequence of Mu-type opioid receptor (P35372 whole entry): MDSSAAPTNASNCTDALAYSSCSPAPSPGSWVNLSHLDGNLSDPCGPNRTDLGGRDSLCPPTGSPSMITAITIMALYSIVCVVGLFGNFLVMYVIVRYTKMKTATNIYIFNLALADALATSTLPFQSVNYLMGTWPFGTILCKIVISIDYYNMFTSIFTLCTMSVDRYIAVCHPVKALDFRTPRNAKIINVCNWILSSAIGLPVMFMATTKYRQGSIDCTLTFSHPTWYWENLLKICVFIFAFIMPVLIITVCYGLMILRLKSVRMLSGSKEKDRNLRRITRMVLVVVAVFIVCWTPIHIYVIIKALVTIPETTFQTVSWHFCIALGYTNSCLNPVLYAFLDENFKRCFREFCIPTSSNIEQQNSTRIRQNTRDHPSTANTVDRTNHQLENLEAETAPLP
Sequence of DNA dC->dU-editing enzyme APOBEC-3A (P31941 whole entry): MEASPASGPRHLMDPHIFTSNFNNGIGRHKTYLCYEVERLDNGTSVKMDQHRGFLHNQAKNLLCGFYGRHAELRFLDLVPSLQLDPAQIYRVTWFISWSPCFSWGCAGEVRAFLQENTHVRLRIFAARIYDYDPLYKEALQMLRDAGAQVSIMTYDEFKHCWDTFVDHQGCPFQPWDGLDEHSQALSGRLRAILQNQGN
Sequence of Delta-type opioid receptor (P41143 whole entry): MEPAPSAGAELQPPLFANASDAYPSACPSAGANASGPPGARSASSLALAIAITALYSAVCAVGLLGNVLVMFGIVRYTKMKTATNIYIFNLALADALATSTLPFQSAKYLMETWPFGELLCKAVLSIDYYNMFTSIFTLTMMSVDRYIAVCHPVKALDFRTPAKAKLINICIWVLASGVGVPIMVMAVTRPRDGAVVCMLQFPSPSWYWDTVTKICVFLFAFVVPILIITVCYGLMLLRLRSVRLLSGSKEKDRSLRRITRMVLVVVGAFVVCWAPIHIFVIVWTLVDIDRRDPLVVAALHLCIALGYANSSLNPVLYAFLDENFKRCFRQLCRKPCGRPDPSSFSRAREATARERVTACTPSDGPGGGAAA
Sequence of Keap1/Nrf2 (Q16236 whole entry): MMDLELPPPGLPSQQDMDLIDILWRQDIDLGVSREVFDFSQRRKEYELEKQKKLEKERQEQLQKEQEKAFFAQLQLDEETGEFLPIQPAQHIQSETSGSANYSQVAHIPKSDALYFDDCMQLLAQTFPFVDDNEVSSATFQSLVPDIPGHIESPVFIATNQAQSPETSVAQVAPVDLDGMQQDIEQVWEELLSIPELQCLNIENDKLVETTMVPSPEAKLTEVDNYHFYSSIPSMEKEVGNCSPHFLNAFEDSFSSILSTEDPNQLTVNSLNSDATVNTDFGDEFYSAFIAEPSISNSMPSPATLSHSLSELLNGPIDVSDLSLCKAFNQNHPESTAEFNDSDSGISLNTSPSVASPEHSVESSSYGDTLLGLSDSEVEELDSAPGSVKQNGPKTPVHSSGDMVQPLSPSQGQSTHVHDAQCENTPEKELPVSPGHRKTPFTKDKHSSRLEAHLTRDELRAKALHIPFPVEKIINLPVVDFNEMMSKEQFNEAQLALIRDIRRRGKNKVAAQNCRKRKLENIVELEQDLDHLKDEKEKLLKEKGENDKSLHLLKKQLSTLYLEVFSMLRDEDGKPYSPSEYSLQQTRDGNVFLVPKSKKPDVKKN
Sequence of Keap1/Nrf2 (Q14145 whole entry): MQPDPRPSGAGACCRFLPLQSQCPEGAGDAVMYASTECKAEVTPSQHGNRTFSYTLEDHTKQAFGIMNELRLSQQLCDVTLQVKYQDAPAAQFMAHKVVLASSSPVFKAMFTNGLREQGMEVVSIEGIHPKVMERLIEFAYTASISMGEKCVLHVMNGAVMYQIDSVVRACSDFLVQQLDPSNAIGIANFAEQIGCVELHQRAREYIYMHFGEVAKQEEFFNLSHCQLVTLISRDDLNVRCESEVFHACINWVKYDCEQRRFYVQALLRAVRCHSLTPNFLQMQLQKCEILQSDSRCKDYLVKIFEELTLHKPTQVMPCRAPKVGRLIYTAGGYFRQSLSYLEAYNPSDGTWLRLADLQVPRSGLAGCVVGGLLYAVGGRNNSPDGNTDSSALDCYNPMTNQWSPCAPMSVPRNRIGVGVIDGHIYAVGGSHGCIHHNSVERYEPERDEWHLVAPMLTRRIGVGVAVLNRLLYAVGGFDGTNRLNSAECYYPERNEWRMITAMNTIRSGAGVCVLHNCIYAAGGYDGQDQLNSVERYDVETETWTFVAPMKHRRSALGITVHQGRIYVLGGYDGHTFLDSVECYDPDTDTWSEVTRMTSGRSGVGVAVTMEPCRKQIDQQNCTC
Sequence of Hexokinase (Q38C41 whole entry): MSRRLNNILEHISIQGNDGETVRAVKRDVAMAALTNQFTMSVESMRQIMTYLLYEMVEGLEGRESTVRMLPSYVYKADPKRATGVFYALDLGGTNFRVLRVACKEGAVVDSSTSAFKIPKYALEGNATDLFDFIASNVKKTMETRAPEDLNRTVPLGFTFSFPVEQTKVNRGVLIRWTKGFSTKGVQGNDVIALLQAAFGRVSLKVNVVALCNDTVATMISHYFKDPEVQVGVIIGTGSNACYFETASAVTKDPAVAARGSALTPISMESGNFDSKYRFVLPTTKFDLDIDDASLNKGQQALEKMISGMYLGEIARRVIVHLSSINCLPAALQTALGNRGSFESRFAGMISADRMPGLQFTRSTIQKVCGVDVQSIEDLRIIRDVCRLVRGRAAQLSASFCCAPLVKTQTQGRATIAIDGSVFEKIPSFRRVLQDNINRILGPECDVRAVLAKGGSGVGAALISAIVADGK
Sequence of Cystic fibrosis transmembrane conductance regulator/Golgi-associated PDZ and coiled-coil motif-containing protein (P13569 whole entry, other chains not shown): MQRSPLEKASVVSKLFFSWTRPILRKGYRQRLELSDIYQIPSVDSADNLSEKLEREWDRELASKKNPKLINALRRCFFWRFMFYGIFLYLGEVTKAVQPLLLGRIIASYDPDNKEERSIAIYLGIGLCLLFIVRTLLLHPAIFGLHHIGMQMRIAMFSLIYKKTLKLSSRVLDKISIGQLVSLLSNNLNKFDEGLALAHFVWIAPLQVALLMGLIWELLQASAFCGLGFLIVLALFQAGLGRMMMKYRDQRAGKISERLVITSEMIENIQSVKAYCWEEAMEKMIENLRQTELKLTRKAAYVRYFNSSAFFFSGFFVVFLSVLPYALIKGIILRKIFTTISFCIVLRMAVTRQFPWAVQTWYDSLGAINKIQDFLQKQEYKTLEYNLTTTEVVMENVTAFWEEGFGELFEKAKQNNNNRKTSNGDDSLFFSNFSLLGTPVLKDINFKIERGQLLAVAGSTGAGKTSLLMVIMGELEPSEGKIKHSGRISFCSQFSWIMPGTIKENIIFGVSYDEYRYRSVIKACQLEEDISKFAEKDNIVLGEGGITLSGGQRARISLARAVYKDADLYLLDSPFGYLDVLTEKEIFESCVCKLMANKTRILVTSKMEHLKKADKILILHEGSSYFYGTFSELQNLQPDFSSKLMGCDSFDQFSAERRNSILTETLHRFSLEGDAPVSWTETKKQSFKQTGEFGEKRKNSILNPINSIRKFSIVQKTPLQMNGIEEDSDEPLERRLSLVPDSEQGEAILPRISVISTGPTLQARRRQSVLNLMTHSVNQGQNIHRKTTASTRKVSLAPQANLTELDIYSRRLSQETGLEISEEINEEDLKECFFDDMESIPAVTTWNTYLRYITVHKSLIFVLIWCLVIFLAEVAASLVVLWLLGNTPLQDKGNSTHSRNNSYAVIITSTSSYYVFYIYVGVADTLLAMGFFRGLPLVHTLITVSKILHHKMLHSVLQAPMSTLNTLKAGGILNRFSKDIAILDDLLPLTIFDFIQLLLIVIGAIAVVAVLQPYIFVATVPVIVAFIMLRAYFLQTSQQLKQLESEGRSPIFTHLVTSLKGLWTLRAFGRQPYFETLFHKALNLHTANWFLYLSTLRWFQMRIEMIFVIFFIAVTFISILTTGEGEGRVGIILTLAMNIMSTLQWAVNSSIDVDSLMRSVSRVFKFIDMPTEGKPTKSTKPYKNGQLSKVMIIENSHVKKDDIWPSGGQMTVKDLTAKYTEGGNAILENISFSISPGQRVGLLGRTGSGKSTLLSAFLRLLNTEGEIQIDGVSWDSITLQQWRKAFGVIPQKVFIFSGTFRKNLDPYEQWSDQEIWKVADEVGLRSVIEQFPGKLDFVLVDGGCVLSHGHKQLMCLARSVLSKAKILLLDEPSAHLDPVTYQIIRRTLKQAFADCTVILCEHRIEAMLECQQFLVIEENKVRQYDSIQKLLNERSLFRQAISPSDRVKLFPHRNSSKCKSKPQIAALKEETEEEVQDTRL

With `CCOC(=O)c1ccncc1NC(=O)c1ccc(OC)cc1`, the IC50 on Hexokinase is > 25 µM (inactive).
Consider `Cc1ccc(S(=O)(=O)NCc2ccc(C(=O)NCCN(Cc3ccccc3)C3CCCC3)cc2)cc1`, for which the 50% inhibitory concentration (IC50) on Mu-type opioid receptor was 3.31 µM (active); in test [1], 0.71 µM (active); in test [2], 0.558 µM (active); in test [3], > 32 µM (inactive); in [4] it was 0.137 µM (active).
Turning to `Cc1cccc(N2C(=O)c3cccc4c(N(C)CCO)ccc(c34)C2=O)c1`, the AC50 with HeLa is 324 µM (active); at ORF 73, 204 µM (active); on Keap1/Nrf2, 22.6 µM (active).
On to `O=C1C=C(c2ccccc2)C(c2ccccc2)C1` (stereo not drawn), for which the half-maximal activity concentration (AC50) in [5] was 17 µM (active).
Consider `CC(=O)Nc1nc2ccccc2n1Cc1ccc(C)cc1`, for which the EC50 in [6] was 3.92 µM (active); in test [7], 7.78 µM (active). Moreover, the CC50 was > 40 µM (active) in test [8], > 20 µM (active) in test [9] and > 20 µM (active) in test [10]. In addition, in “cells”, the half-maximal inhibitory concentration (IC50) was 2.73 µM (active).
As to `Cc1cccc(C)c1OCc1nnc(S)n1N`, the IC50 in test [11] was > 100 µM (inactive); in [12], 5.83 µM (active).

The term IC50 denotes the concentration needed to halve the response being measured. A word on the AC50: it is the concentration at which the activity in the assay is half-maximal. The term EC50 denotes the midpoint of the concentration-response curve. For orientation: CC50 means the concentration that lowers cell viability or growth by half.
